Source: publication PMC4448982, “LP-925219 maximizes urinary glucose excretion in mice by inhibiting both renal SGLT1 and SGLT2” (Pharmacology Research & Perspectives, 2015)
Read-outs that look alike come from different tables or passages of the source.

Tests used:
intestinal SGLT1 = target: T1, intestinal SGLT1 (Mus musculus, UniProt Q8C3K6); assay: Glucose-containing meal challenge in C57 mice; assay type: in vivo
T1 construct: from tissue; host or cells: small intestine of living male C57BL/6-Tyrc-Brd mice
T1 sequence (Q8C3K6 1-665): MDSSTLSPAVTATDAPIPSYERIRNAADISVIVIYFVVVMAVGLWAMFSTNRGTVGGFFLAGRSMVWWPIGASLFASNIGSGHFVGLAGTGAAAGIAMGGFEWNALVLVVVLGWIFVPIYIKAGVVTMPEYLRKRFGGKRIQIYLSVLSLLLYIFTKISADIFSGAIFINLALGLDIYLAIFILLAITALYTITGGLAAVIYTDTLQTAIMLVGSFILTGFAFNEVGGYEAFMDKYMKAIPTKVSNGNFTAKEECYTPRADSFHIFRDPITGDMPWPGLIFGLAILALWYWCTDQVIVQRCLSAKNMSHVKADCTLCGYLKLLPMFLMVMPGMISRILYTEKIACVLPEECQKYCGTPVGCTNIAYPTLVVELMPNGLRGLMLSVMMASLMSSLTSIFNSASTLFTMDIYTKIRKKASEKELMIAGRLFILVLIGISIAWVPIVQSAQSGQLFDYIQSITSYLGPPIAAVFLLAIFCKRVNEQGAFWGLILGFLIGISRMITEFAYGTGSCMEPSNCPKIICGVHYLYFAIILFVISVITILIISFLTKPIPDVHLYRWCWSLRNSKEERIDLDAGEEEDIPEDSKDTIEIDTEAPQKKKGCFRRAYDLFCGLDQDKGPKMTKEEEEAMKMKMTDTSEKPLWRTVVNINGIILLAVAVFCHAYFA
Procedure: A meal consisting of low-fat diet (10% kcal as fat, D12450B; Research Diets, New Brunswick, NJ) supplemented with glucose was prepared by adding 50 g of low-fat diet powder and 9.4 g of glucose to water with a final volume of 94 mL. At 8:30 am, C57 mice in the fed state received either vehicle or 50 mg/kg LP-925219 by oral gavage; 30 min later, at Time = 0, each mouse received 25 mL/kg of the above meal (9.2 g/kg glucose, 2.5 g/kg protein, 0.6 g/kg fat) by oral gavage as described previously (Powell et al. [2013b]). Blood obtained from unanesthetized mice at 0, 10, and 30 min by tail nick, and at 60 min by retro-orbital bleed, was assayed for whole blood glucose using an Accu-Chek Aviva glucometer (Roche Diagnostics, Indianapolis, IN). The blood obtained at 60 min was also used to measure circulating levels of total GLP-1 (tGLP-1; Glucagon-Like Peptide-1 Total ELISA Kit, catalog #EZGLP1T-36K, EMD Millipore, Billerica, MA) as described previously (Powell et al. [2013b]). After their blood was drawn at 60 min, mice were anesthetized with isoflurane (TW Medical Veterinary Supply, Lago Vista, TX) and then euthanized by cervical dislocation. Cecal contents were then collected and analyzed for glucose and pH as described previously (Powell et al. [2013b]). Blood glucose time-course data were converted to area under the curve (AUC) values by trapezoidal summation using GraphPad Prism v4.03.
Mice received either vehicle or LP-925219 at a dose of 50 mg/kg (n = 5 for each group) by oral gavage; 30 min later the mice received, by oral gavage at Time 0, a glucose-containing meal challenge. (A) Blood glucose levels were measured at 0, 10, 30, and 60 min; for each mouse, blood glucose levels were used to calculate an AUC value for statistical analysis. At 60 min, blood was obtained for (B) tGLP-1 levels, and cecal contents were obtained and assayed for (C) cecal glucose and (D) cecal pH. LP-925219-treated value different from vehicle, *P < 0.05, **P < 0.01, ***P < 0.001. AUC, area under the curve.

[1] = Pharmacokinetics in mice (intravenous and oral); assay type: in vivo; conditions: mouse
Procedure: Adult male C57BL/6J mice (25–35 g) were maintained on chow diet, had free access to water and were conscious through the study. LP-925219 was delivered by bolus intravenous administration at 1 mg/kg or by oral gavage at a dose of 10 mg/kg; 0.1% Tween-80 served as vehicle. Following intravenous injection, serial blood samples were collected in Ethylenediaminetetraacetic acid-containing tubes through 6 h. Following oral administration, serial blood samples were collected through 24 h. The plasma fraction was immediately separated by centrifugation at 4°C, and then stored at −20°C until sample analysis. To quantify LP-925219 concentrations, plasma samples were extracted with acetonitrile-water-formic acid (80:20:0.1) containing verapamil as internal standard at a concentration of 1 μmol/L. Extracted samples were analyzed by LC/MS-MS using a Surveyor HPLC system with a TSQ triple quadrupole mass spectrometer coupled with an Electrospray ionization source (Thermo Fisher Scientific, Waltham, MA). XCalibur 2.0 SR2 software (Thermo Fisher Scientific) was used for instrument control and data calculation. A rapid LC gradient with ammonium acetate […] (pH ∼6) and acetonitrile was used. Calculations were made by normalizing the area counts of compound to the area counts of the internal standard (relative area counts).
All plasma concentration versus time data for LP-925219 were analyzed using noncompartmental analysis, either extravascular administration (for oral administration) or bolus IV administration (for intravenous administration), of Phoenix™ WinNonlin® (version 6.3, Pharsight, Inc. Mountain View, CA). The half-life during the terminal phase was calculated from the elimination rate constant (λ) determined by the linear regression analysis of the log-linear part of the plasma concentration curve. The LP-925219 AUC0–t was calculated using linear up/log down trapezoidal method up to the last measured concentration at time t (Ct). AUC0–∞ was calculated as AUC0–t + Ct/λ. Clearance (CL) was calculated by dose/AUC0–∞. Other pharmacokinetic parameters included plasma peak concentration (Cmax), the time of Cmax (Tmax) and volume of distribution at steady state (Vss). Oral bioavailability (%F) was calculated by the equation: %F = (AUC0–∞ PO/AUC0–∞ IV) × (Dose IV/Dose PO).

[2] = 50 mg/kg oral gavage, 60 min after meal, vs vehicle
[3] = male, C57BL/6J, plasma, 1 mg/kg intravenous
[4] = male, C57BL/6J, plasma, 10 mg/kg oral

COc1ccc(Cc2cc([C@@H]3O[C@H](SC)[C@@H](O)[C@H](O)[C@H]3O)ccc2Cl)cc1 [LP-925219]
blood glucose AUC after meal challenge (intestinal SGLT1; 50 mg/kg oral gavage 30 min before meal, 0-60 min, vs vehicle, P < 0.05): significant decrease | cecal glucose (intestinal SGLT1; [2]): more glucose | cecal pH (intestinal SGLT1; [2]): lower pH | circulating total GLP-1 (intestinal SGLT1; [2]): increased levels | diarrhea (intestinal SGLT1; 50 mg/kg oral gavage, short-term study): not observed | AUC(0-inf) [1, 3]: 1.41 ± 0.04 µM·h | AUC(0-t) [1, 3]: 1.214 ± 0.012 µM·h | Cmax [1, 3]: 1440 ± 97 nM | clearance [1, 3]: 29 ± 1 mL/min/kg | half-life [1, 3]: 2.8 ± 0.7 h | Vd ([1]; male, C57BL/6J, plasma, 1 mg/kg intravenous, read-out: Vss): 4.4 ± 0.6 L/kg | AUC(0-t) [1, 4]: 11.2 µM·h | Cmax [1, 4]: 3160 ± 802 nM | Tmax [1, 4]: 0.3 h | half-life [1, 4]: 7 ± 0.9 h | bioavailability ([1]; male, C57BL/6J, plasma, 10 mg/kg oral vs 1 mg/kg intravenous, read-out: %F): 87 ± 21% | concentration at 6 h ([1]; male, C57BL/6J, plasma, 10 mg/kg oral, 6 h, read-out: plasma level at 6 h postdosing): 617 ± 107 nM | concentration at 24 h ([1]; male, C57BL/6J, plasma, 10 mg/kg oral, 24 h, read-out: plasma level at 24 h post dosing): 100 ± 43 nM | bioavailability ([1]; male, C57BL/6J, plasma, 10 mg/kg oral, read-out: bioavailability (%F)): 87% | AUC0-∞ ([1]; 10 mg/kg oral): 12,214 ± 3037 nmo/L*h | plasma level at 24 h post dosing ([1]; 10 mg/kg oral, 24 h, 10 mg/kg): 100 nM
